Structures can show the parent of a compound that is named as a salt.
Tests used:
[1] = system: human lung cancer NCI-H1581 nude mouse subcutaneous xenograft tumor; experiment: Efficacy in human lung cancer NCI-H1581 nude mouse subcutaneous xenograft tumor model; assay type: in vivo
Excerpt: The human lung cancer NCI-H1581 cell strain (preserved by Shanghai Institute of Materia Medica, Chinese Academy of Sciences) was inoculated subcutaneously in the right axilla of nude mice with an inoculation amount of the cells of 5×10^6 cells/mouse. The formed xenograft tumor was directly inoculated for use.
The tumor tissue in the vigorous growth phase was cut into about 1.5 mm^3 and was inoculated subcutaneously in the right axilla of the nude mouse under sterile conditions. The diameter of the subcutaneous xenograft tumor in the nude mouse was measured using a vernier caliper, and the animals were randomly grouped after the tumors grew to an average volume of about 150-160 mm^3. Animals in the Example 3 sample group were orally administered at 10 mg/kg, 5 mg/kg, and 2.5 mg/kg once a day for two consecutive weeks. Animals in the […] (AZD4547) were orally administered at 12.5 mg/kg once a day for two consecutive weeks. Throughout the experiment, the diameter of the xenograft tumor was measured 2 times a week, and the body weight of the mice was measured at the same time. The tumor volume (TV) was calculated as follows: TV=½×a×b^2, wherein a and b represent the length and width, respectively. The relative tumor volume (RTV) was calculated from the measurement results using the following formula: RTV=Vt/V0, wherein V0 is the tumor volume measured at the time of grouping and administration (d0), and Vt is the tumor volume at each measurement. The evaluation index of the anti-tumor activity was the relative tumor proliferation rate T/C (%), which was calculated as follows: T/C (%)=(TRTV/CRTV)×100%, wherein TRTV represents RTV of the treatment group; CRTV represents RTV of the negative control group.

[2] = Solubility experiments of compound of formula (I) and salts thereof; assay type: physicochemical; details: 25° C.
[3] = Water sorption and desorption experiments (DVS hygroscopicity); assay type: physicochemical; details: 40%-80% relative humidity, 25° C.
[4] = Solid stability study of dihydrochloride salt crystal form I; assay type: physicochemical
Excerpt: (in a covered sample flask) for 7 days, and for physical stability at room temperature/92.5% RH (uncovered) for 10 days.

[5] = Solid grinding stability: dropwise addition of solvents and grinding; assay type: physicochemical; details: ground
[6] = Solid grinding stability: solid grinding, XRPD; assay type: physicochemical; details: 20 mg ground in a mortar for 2 min and 5 min
Description: 20 mg of the sample in Example 3 was weighed out, added to a mortar, and ground for 2 min and 5 min, respectively. Then, the sample was characterized by XRPD.

[7] = Na2HPO4-citric acid buffer (pH 4.6)
[8] = 40° C./75% RH (uncovered) for 7 days
[9] = 60° C. (covered sample flask) for 7 days

With `COc1cc(CCc2cc(NC(=O)c3ccc(N4C[C@@H](C)N[C@@H](C)C4)cc3)n[nH]2)cc(OC)c1` [AZD4547, reference compound] the “T/C (relative tumor proliferation rate)” value ([1]; 12.5 mg/kg orally once a day for two consecutive weeks) was 20.01%.

`CNC(=O)c1cccc2cc(Oc3ccnc(NC(=O)c4ccc(N5C[C@@H](C)N[C@@H](C)C5)cc4)c3)ccc12` [Compound of formula (I)] showed a Solubility [2, 7] of 45 µg/mL and a Solubility ([2]; deionized water) of 8 µg/mL.

In the case of `CNC(=O)c1cccc2cc(Oc3ccnc(NC(=O)c4ccc(N5C[C@@H](C)N[C@@H](C)C5)cc4)c3)ccc12` [Dihydrochloride salt crystal form I], the “Hygroscopicity (%)” value [3] is reported as 0.65%, the Purity [4, 8] is reported as 99.86 and the “XRPD (crystal form)” value [4, 8] is reported as “Not changed”. For the same compound, the Purity [4, 9] was 99.85, the “XRPD (crystal form)” value [4, 9] was “Not changed” and the Purity ([4]; T0) was 99.85. For the same compound, the “XRPD (crystal form)” value ([4]; room temperature/92.5% RH (uncovered) for 10 days) was “Not changed”, the “Solvent grinding result (crystal form)” value ([5]; Acetone added dropwise) was “Crystal form I” and the “Solvent grinding result (crystal form)” value ([5]; Acetonitrile added dropwise) was “Crystal form I”. For the same compound, the “Solvent grinding result (crystal form)” value ([5]; Butanone added dropwise) was “Crystal form I”, the “Solvent grinding result (crystal form)” value ([5]; Ethanol added dropwise) was “Crystal form I” and the “Solvent grinding result (crystal form)” value ([5]; Ethyl acetate added dropwise) was “Crystal form I”. For the same compound, the “Solvent grinding result (crystal form)” value ([5]; Isopropanol added dropwise) was “Crystal form I”, the “Solvent grinding result (crystal form)” value ([5]; Methanol added dropwise) was “Crystal form I” and the “Crystal form of the ground sample (XRPD)” value [6] was “not changed”. For the same compound, the “T/C (relative tumor proliferation rate)” value ([1]; 2.5 mg/kg orally once a day for two consecutive weeks) was 49.06%, the “T/C (relative tumor proliferation rate)” value ([1]; 5 mg/kg orally once a day for two consecutive weeks) was 33.22% and the “T/C (relative tumor proliferation rate)” value ([1]; 10 mg/kg orally once a day for two consecutive weeks) was 17.17%. The “Effect on the growth of xenograft tumors” value ([1]; 10 mg/kg, 5 mg/kg and 2.5 mg/kg orally once a day for two consecutive weeks) was “significant inhibitory effect” and the “Animal condition and mortality during the experiment” value ([1]; 10, 5 and 2.5 mg/kg orally once a day for two weeks, nude mice) was “no mice died”.

For `C[C@@H]1COC(Nc2ccc3ncnc(Nc4ccc(OCc5nccs5)c(Cl)c4)c3c2)=N1.O=C(O)/C=C\C(=O)O` [Maleate salt], the Solubility [2, 7] was 30 µg/mL, the Solubility ([2]; deionized water) was 2000 µg/mL and the “Hygroscopicity (%)” value [3] was 0.81%.

Source: patent US20250171415A1, “SALT OF SUBSTITUTED AMINO SIX-MEMBERED NITRIC HETEROCYCLIC COMPOUND, CRYSTAL FORM THEREOF, METHOD FOR PREPARING SAME, AND USE THEREOF” (SHANGHAI RUNSHI MEDICAL TECHNOLOGY CO., LTD., priority 2022, published 2025)
